# Laboratory results as given in patent US20250049036A1 (priority 2021, published 2025).
# How the values were obtained:
# Phakopsora pachyrhizi = Phakopsora pachyrhizi test on soybean, preventive, greenhouse; type: in vivo; details: preventive spray on soybean, inoculated one day after treatment, read-out: control (efficacy, disease severity) compared to the untreated check
# Experimental: The respective compound was dissolved in 2% dimethyl sulfoxide/acetone and then mixed with water containing emulsifier to the calibrated spray volume of 30 mL. Each spray solution was poured into a spray bottle for further application.
# To test the preventive activity of a compound, healthy young soybean plants, raised in the greenhouse, were sprayed with the active compound preparation at the stated application rate inside the spray cabinets using hollow cone nozzles. One day after treatment, the plants were inoculated with a conidial suspension containing 2×10^5 Phakopsora pachyrhizi inoculum. The inoculated plants were then kept in a greenhouse chamber at 22-24° C. temperature and 80-90% relative humidity for disease expression.
# Pyricularia oryzae = test: microbe, parasite or virus in culture; type: cell-based; details: 168 h, read-out: control compared to the untreated check
# Parastagonospora nodorum = Parastagonospora nodorum (PARANO) spore growth inhibition in liquid medium, 96-well microtiter plate, OD 600; type: cell-based; details: spore suspension in PDB liquid medium, 18° C., 5-6 days, OD at 600, read-out: control compared to the untreated check
# Experimental: Potato dextrose (PDB) liquid medium (Difco) containing a PARANO (10^5 spores/ml) spore suspension was prepared. For the inhibition assay, each test compound was solved in dimethyl sulfoxide. 100 μl of the test compound in media-solution was added to a 96-well microtiter plate, consequently, the same volume (100 μl) of spore suspension was added to the well making the final test concentrations and the plate was incubated at 18° C. for 5-6 days. The growth inhibition was evaluated by measuring the OD at 600. Percent inhibition was calculated with the below formula: […]
compound,measurement,setting,value
"CCC(O)(CC)C(NC(=O)c1cnc2c(c1)c(Cl)cn2C)c1ccccc1 (stereo not shown) [Compound 138, 3-chloro-N-(2-ethyl-2-hydroxy-1-phenylbutyl)-1-methyl-1H-pyrrolo[2,3-b] pyridine-5-carboxamide]",pest or weed control at 500 ppm,Phakopsora pachyrhizi,≥ 70%
"Cn1cc(Cl)c2cc(C(=O)NC(C)(C)COCc3cc(F)ccc3Cl)cnc21 [Compound 214, 3-chloro-N-(1-((2-chloro-5-fluorobenzyl)oxy)-2-methylpropan-2-yl)-1-methyl-1H-pyrrolo[2,3-b]pyridine-5-carboxamide]",inhibition of growth at 300 ppm,Pyricularia oryzae,≥ 70%
C=C(C)CC(C)(COc1ccccc1F)NC(=O)c1cnc2c(c1)c(Cl)cn2C (stereo not shown) [Compound 179],inhibition of growth at 300 ppm,Parastagonospora nodorum,≥ 70%
"Cc1ccccc1C(=O)OCC(C)(C)NC(=O)c1cnc2c(c1)c(Br)cn2C [Compound 185, 2-(3-bromo-1-methyl-1H-pyrrolo[2,3-b]pyridine-5-carboxamido)-2-methylpropyl 2-methylbenzoate]",inhibition of growth at 300 ppm,Pyricularia oryzae,≥ 70%
"Cn1cc(Cl)c2cc(C(=O)NC3Cc4ccccc4C3)cnc21 [Compound 137, 3-chloro-N-(2,3-dihydro-1H-inden-2-yl)-1-methyl-1H-pyrrolo[2,3-b]pyridine-5-carboxamide]",pest or weed control at 500 ppm,Phakopsora pachyrhizi,≥ 70%
"CC(C)(Cc1ccccc1)NC(=O)c1cc2c(nc1Cl)CCC2 [Compound 210, 2-chloro-N-(2-methyl-1-phenylpropan-2-yl)-6,7-dihydro-5H-cyclopenta[b]pyridine-3-carboxamide]",inhibition of growth at 300 ppm,Parastagonospora nodorum,≥ 70%
"COc1nc2c(cc1C(=O)NC(C)(C)COc1ccnc(Cl)c1)CCC2 [Compound 243, N-(1-((2-chloropyridin-4-yl)oxy)-2-methylpropan-2-yl)-2-methoxy-6,7-dihydro-5H-cyclopenta[b]pyridine-3-carboxamide]",inhibition of growth at 300 ppm,Parastagonospora nodorum,≥ 70%
"Cc1nc2[nH]ccc2cc1C(=O)NC(C)(C)Cc1ccc(F)cc1 [Compound 94, N-(1-(4-fluorophenyl)-2-methylpropan-2-yl)-6-methyl-1H-pyrrolo[2,3-b]pyridine-5-carboxamide]",pest or weed control at 500 ppm,Phakopsora pachyrhizi,≥ 70%
"Cn1ccc2cc(C(=O)NC(C)(C)Cc3cccc(Cl)c3)cnc21 [Compound 22, N-(1-(3-chlorophenyl)-2-methylpropan-2-yl)-1-methyl-1H-pyrrolo[2,3-b]pyridine-5-carboxamide]",pest or weed control at 500 ppm,Phakopsora pachyrhizi,≥ 70%
"Cc1cccc(CC(NC(=O)c2cnc3[nH]ccc3c2)C(C)(C)O)c1 (stereo not shown) [Compound 104, N-(3-hydroxy-3-methyl-1-(m-tolyl)butan-2-yl)-1H-pyrrolo[2,3-b]pyridine-5-carboxamide]",pest or weed control at 500 ppm,Phakopsora pachyrhizi,≥ 70%
"Cn1cc(C2CC2)c2cc(C(=O)NC(C)(C)Cc3ccccc3F)cnc21 [Compound 60, 3-cyclopropyl-N-(1-(2-fluorophenyl)-2-methylpropan-2-yl)-1-methyl-1H-pyrrolo[2,3-b]pyridine-5-carboxamide]",inhibition of growth at 300 ppm,Parastagonospora nodorum,≥ 70%
"CC(c1ccccc1)C(C)(C)NC(=O)c1cnc2c(c1)c(Cl)cn2C (stereo not shown) [Compound 87, 3-chloro-1-methyl-N-(2-methyl-3-phenylbutan-2-yl)-1H-pyrrolo[2,3-b]pyridine-5-carboxamide]",pest or weed control at 500 ppm,Phakopsora pachyrhizi,≥ 70%
"C=CCC(C)(Cc1ccccc1F)NC(=O)c1cnc2ccsc2c1 (stereo not shown) [Compound 134, N-(1-(2-fluorophenyl)-2-methylpent-4-en-2-yl)thieno[3,2-b] pyridine-6-carboxamide]",pest or weed control at 500 ppm,Phakopsora pachyrhizi,≥ 70%
"Cc1ccc(C)c(COCC(C)(C)NC(=O)c2cnc3c(ccn3C)c2)c1 [Compound 227, N-(1-((2,5-dimethylbenzyl)oxy)-2-methylpropan-2-yl)-1-methyl-1H-pyrrolo[2,3-b]pyridine-5-carboxamide]",inhibition of growth at 300 ppm,Parastagonospora nodorum,≥ 70%
"CON(C(=O)c1cnc2c(c1)CCC2)C(C)Cc1ccccc1F (stereo not shown) [Compound 253, N-(1-(2-fluorophenyl)propan-2-yl)-N-methoxy-6,7-dihydro-5H-cyclopenta[b]pyridine-3-carboxamide]",inhibition of growth at 300 ppm,Parastagonospora nodorum,≥ 70%
"Cc1ccc(F)cc1C(O)C(C)(C)NC(=O)c1cnc2c(c1)c(Br)cn2C (stereo not shown) [Compound 135, 3-bromo-N-(1-(5-fluoro-2-methylphenyl)-1-hydroxy-2-methylpropan-2-yl)-1-methyl-1H-pyrrolo[2,3-b]pyridine-5-carboxamide]",inhibition of growth at 300 ppm,Parastagonospora nodorum,≥ 70%
"Cc1ccc(COCC(C)(C)NC(=O)c2cnc3ccsc3c2)c(C)c1 [Compound 200, N-(1-((2,4-dimethylbenzyl)oxy)-2-methylpropan-2-yl)thieno[3,2-b] pyridine-6-carboxamide]",inhibition of growth at 300 ppm,Parastagonospora nodorum,≥ 70%
"Cn1cc(Cl)c2cc(C(=O)NC3(c4cc(Cl)cc(Cl)c4)CC3)cnc21 [Compound 140, 3-chloro-N-(1-(3,5-dichlorophenyl)cyclopropyl)-1-methyl-1H-pyrrolo[2,3-b]pyridine-5-carboxamide]",pest or weed control at 500 ppm,Phakopsora pachyrhizi,≥ 70%
"CC(C)c1ccc(CC(C)(C)NC(=O)c2cnc3c(ccn3C)c2)cc1 [Compound 18, N-(1-(4-isopropylphenyl)-2-methylpropan-2-yl)-1-methyl-1H-pyrrolo[2,3-b]pyridine-5-carboxamide]",inhibition of growth at 300 ppm,Parastagonospora nodorum,≥ 70%
"COc1nc2[nH]ccc2cc1C(=O)NC(C)(C)Cc1ccccc1 [Compound 88, 6-methoxy-N-(2-methyl-1-phenylpropan-2-yl)-1H-pyrrolo[2,3-b] pyridine-5-carboxamide]",pest or weed control at 500 ppm,Phakopsora pachyrhizi,≥ 70%
"Cc1cc(F)ccc1C(O)C(C)(C)NC(=O)c1cnc2ccsc2c1 (stereo not shown) [Compound 173, N-(1-(4-fluoro-2-methylphenyl)-1-hydroxy-2-methylpropan-2-yl)thieno[3,2-b] pyridine-6-carboxamide]",inhibition of growth at 300 ppm,Parastagonospora nodorum,≥ 70%
"CC(C)(COc1ccnc(Cl)c1)NC(=O)c1cnc2ccsc2c1 [Compound 205, N-(1-((2-chloropyridin-4-yl)oxy)-2-methylpropan-2-yl)thieno[3,2-b] pyridine-6-carboxamide]",inhibition of growth at 300 ppm,Parastagonospora nodorum,≥ 70%
"C=C(C)CC(C)(Cc1ccccc1F)NC(=O)c1cnc2c(c1)c(Br)cn2C (stereo not shown) [Compound 142, 3-bromo-N-(1-(2-fluorophenyl)-2,4-dimethylpent-4-en-2-yl)-1-methyl-1H-pyrrolo[2,3-b]pyridine-5-carboxamide]",pest or weed control at 500 ppm,Phakopsora pachyrhizi,≥ 70%
"Cn1ccc2cc(C(=O)NC(C)(C)Cc3ccccc3Cl)cnc21 [Compound 17, N-(1-(2-chlorophenyl)-2-methylpropan-2-yl)-1-methyl-1H-pyrrolo[2,3-b]pyridine-5-carboxamide]",inhibition of growth at 300 ppm,Parastagonospora nodorum,≥ 70%
"Cc1nc2[nH]ccc2cc1C(=O)NC(C)(C)Cc1ccccc1 [Compound 93, 6-methyl-N-(2-methyl-1-phenylpropan-2-yl)-1H-pyrrolo[2,3-b] pyridine-5-carboxamide]",pest or weed control at 500 ppm,Phakopsora pachyrhizi,≥ 70%
"COc1nc2c(cc1C(=O)NC1(Cc3ccccc3)CC1)CCC2 [Compound 245, N-(1-benzylcyclopropyl)-2-methoxy-6,7-dihydro-5H-cyclopenta[b]pyridine-3-carboxamide]",inhibition of growth at 300 ppm,Parastagonospora nodorum,≥ 70%
"COc1nc2c(cc1C(=O)NC(C)(C)Cc1ccccc1)CCC2 [Compound 217, 2-methoxy-N-(2-methyl-1-phenylpropan-2-yl)-6,7-dihydro-5H-cyclopenta[b]pyridine-3-carboxamide]",inhibition of growth at 300 ppm,Parastagonospora nodorum,≥ 70%
"Cn1ccc2cc(C(=O)NC(C)(C)Cc3ccc(C(C)(C)C)cc3)cnc21 [Compound 16, N-(1-(4-(tert-butyl)phenyl)-2-methylpropan-2-yl)-1-methyl-1H-pyrrolo[2,3-b]pyridine-5-carboxamide]",inhibition of growth at 300 ppm,Parastagonospora nodorum,≥ 70%
